Data as given in paper PMC11081424 (Protein Science : A Publication of the Protein Society, 2024).

Target: T1, TPARED (Comamonas sp., UniProt Q3C1E0)
T1 sequence (Q3C1E0 1-336): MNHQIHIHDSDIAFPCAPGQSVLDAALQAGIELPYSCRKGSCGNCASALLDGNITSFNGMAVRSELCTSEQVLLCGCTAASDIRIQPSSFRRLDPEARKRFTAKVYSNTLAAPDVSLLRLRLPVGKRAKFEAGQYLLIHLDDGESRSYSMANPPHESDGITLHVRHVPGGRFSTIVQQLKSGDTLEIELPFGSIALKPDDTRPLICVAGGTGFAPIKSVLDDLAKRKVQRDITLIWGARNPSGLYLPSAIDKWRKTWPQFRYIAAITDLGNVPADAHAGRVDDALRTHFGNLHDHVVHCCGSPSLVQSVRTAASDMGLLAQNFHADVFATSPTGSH
Assay: FAD released by acid denaturation, UV/vis at […] nm
Type: binding
Conditions: as purified, three purifications

For `Cc1cc2nc3c(=O)[nH]c(=O)nc-3n(C[C@H](O)[C@H](O)[C@H](O)COP(=O)(O)OP(=O)(O)OC[C@H]3O[C@@H](n4cnc5c(N)ncnc54)[C@H](O)[C@@H]3O)c2cc1C` [FAD], which “equivalents of FAD per protein” value is on record?
Its value is 0.95 ± 0.08 equivalents.
